ChEMBL document CHEMBL1629458, “Synthesis of phosphatidylinositol 3-kinase (PI3K) inhibitory analogues of the sponge meroterpenoid liphagal” (J Med Chem, 2010)

Experiments:
[1] = target: Phosphatidylinositol 4,5-bisphosphate 3-kinase catalytic subunit gamma isoform (Homo sapiens, UniProt P48736); experiment: Inhibition of human PI3Kgamma expressed in Sf9 cells by fluorescent polarization assay
[2] = target: Phosphatidylinositol 4,5-bisphosphate 3-kinase catalytic subunit alpha isoform (Homo sapiens, UniProt P42336); experiment: Inhibition of human PI3Kalpha expressed in Sf9 cells by fluorescent polarization assay
[3] = species: Homo sapiens; experiment: Selectivity for human PI3Kalpha over human PI3Kgamma

Phosphatidylinositol 4,5-bisphosphate 3-kinase catalytic subunit alpha isoform, sequence (P42336 whole entry, canonical isoform): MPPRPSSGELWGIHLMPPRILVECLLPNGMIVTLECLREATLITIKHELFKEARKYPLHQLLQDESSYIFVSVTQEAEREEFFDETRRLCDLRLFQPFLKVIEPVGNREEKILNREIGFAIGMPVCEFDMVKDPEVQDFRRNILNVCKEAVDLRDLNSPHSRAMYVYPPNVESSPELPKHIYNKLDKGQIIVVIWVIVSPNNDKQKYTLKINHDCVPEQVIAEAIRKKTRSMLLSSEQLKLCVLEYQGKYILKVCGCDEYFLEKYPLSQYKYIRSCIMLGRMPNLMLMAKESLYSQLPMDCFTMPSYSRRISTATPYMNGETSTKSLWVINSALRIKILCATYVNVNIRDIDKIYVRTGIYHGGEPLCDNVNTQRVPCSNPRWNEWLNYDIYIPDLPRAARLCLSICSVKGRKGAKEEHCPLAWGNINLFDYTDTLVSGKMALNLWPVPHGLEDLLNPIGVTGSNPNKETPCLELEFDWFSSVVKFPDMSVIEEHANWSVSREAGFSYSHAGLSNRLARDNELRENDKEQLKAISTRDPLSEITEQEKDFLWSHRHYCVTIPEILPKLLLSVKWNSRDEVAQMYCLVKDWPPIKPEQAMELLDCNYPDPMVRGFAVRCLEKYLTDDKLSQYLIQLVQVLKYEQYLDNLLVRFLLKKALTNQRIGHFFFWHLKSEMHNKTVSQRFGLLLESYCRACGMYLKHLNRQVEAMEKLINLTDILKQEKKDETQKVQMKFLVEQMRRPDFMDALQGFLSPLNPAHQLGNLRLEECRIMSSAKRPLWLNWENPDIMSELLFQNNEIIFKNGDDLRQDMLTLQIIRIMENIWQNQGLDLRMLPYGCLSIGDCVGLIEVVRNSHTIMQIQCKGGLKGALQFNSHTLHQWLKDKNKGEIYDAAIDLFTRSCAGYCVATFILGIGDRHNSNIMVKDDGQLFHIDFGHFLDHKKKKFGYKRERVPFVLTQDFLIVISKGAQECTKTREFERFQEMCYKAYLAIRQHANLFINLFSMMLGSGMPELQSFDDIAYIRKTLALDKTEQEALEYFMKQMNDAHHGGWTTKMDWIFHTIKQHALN
Phosphatidylinositol 4,5-bisphosphate 3-kinase catalytic subunit gamma isoform, sequence (P48736 whole entry, canonical isoform): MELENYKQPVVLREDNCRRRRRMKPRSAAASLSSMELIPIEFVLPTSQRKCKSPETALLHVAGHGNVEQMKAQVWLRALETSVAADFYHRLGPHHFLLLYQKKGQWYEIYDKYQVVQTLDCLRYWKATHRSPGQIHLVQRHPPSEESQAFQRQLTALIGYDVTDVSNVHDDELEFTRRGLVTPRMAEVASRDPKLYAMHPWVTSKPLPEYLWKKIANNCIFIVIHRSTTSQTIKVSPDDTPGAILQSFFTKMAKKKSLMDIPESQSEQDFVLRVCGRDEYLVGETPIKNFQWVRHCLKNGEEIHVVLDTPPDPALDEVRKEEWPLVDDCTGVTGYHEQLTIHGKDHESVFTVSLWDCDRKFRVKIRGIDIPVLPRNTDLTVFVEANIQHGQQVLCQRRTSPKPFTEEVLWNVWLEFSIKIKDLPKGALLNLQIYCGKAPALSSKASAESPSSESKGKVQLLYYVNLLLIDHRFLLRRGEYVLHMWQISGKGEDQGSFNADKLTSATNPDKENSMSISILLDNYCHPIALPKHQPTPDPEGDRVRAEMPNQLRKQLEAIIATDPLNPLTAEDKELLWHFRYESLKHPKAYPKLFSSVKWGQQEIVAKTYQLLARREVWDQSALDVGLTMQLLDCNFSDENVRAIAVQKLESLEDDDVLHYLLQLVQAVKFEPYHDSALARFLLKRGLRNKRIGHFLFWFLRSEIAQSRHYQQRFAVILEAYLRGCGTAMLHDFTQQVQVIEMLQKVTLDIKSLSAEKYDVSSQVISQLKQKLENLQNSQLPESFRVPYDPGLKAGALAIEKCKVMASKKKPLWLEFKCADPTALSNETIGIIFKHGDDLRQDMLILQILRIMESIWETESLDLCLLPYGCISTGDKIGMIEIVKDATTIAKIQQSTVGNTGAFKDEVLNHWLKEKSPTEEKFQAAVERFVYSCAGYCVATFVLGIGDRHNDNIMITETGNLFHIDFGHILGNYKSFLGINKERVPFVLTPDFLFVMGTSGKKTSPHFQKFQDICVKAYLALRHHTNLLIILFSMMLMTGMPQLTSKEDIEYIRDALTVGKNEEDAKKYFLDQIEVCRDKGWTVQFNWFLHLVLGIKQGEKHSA

Row | IC50 [1] [nM] | IC50 [2] [nM] | Ratio IC50 [3] | SMILES
1 | 2200 | 2200 |  | C[C@H]1CC[C@H]2C(C)(C)CCC[C@]2(C)c2c1oc1cc(O)ccc21
2 | > 10000 | 3300 |  | C[C@@H]1CC[C@H]2C(C)(C)CCC[C@]2(C)C2=C3C=C(O)C(=O)C(Br)=C3OC21O (stereo partly drawn)
3 | > 10000 | > 10000 |  | COc1ccc2c3c(oc2c1Br)[C@H](C)CC[C@H]1C(C)(C)CCC[C@]31C
4 | 5700 | 10200 |  | C[C@@H]1CC[C@H]2C(C)(C)CCC[C@]2(C)c2c1oc1c(Br)c(O)ccc21
5 | 1900 | 7200 |  | C[C@@H]1CC[C@H]2C(C)(C)CCC[C@]2(C)c2c1oc1ccc(O)cc21
6 | > 10000 | > 10000 |  | C[C@@H]1CC[C@H]2C(C)(C)CCC[C@]2(C)c2c1oc1cc(O)ccc21
7 | 5300 | 700 | 7 | C[C@@H]1CCCC(C)(C)C12CC[C@H](C)c1oc3c(Br)c(O)c(O)cc3c12 (mixture of isomers)
8 | 9570 | 1650 |  | CC1(C)CCC[C@]2(C)C3=C4C=C(O)C(=O)C=C4OC3(O)CC[C@@H]12 (mixture of isomers)
9 | 2640 | 5120 |  | COc1cc2c3c(oc2c(C=O)c1OC)CC[C@H]1C(C)(C)CCC[C@]31C (racemic)
10 | 1800 | 66 | 27 | CC1(C)CCC[C@]2(C)c3c(oc4c(C=O)c(O)c(O)cc34)CC[C@@H]12 (racemic)
11 | 5150 | 1000 |  | COc1cc2c3c(oc2c(C=O)c1O)CC[C@H]1C(C)(C)CCC[C@]31C (racemic)
12 | 1400 | 700 |  | CC1(C)CCC[C@]2(C)c3c(oc4c(C(N)=O)c(O)c(O)cc34)CC[C@@H]12 (racemic)

Row | SMILES | IC50 [1] [nM] | IC50 [2] [nM] | Ratio IC50 [3]
13 | C[C@@H]1CC[C@H]2C(C)(C)CCC[C@]2(C)c2c1oc1c(C=O)c(O)c(O)cc21 | 1000 | 100 | 
